16 molecules from publication PMC7248897, “Synthesis, Biological Evaluation and In Silico Studies of Certain Oxindole–Indole Conjugates as Anticancer CDK Inhibitors” (Molecules, 2020) can be followed below.

One may read the IC50 as the concentration at which inhibition is half-maximal.

“Also recorded” adds a separate entry of the source. Read-outs that look alike come from different tables or passages of the source.

For assay [1], the system named is MCF-7 breast cancer cell line. As to the kind of experiment: SRB anti-proliferative assay, MCF-7. It is filed as cell-based, human. The conditions noted are these: for IC50: Homo sapiens, read-out: IC50 MCF-7. How it is done: (§1) Cytotoxicity was assessed following the SRB colorimetric assay protocol, as reported earlier.
(§2) 1. Anti-proliferative action toward human breast cell lines […]
(§3) have been obtained from American Type Culture Collection (ATCC). The cells were maintained in Dulbecco's modified Eagle's medium (DMEM) supplemented with 10% heat inactivated fetal calf serum (GIBCO), penicillin (100 U/ml) and streptomycin (100 µg/ml) at 37 °C in humidified atmosphere containing 5% CO2. Cells at a concentration of […]
(§4) The anti-proliferative activity of the tested hybrids 6a-i, 9a-f and 11a, b was measured in vitro using the Sulfo-Rhodamine-B stain (SRB) assay. Briefly, Cells were inoculated in 96-well microtiter plate (5X104 cells/ well) for 24 h before treatment with the tested compounds to allow attachment of cell to the wall of the plate. Tested compounds were dissolved in DMSO at 1 mg/ml immediately before use and diluted to the appropriate volume just before addition to the cell culture. Different concentrations of tested compounds, doxorubicin and sorafenib were added to the cells (three wells were prepared for each individual dose). Cells were incubated with the compounds for 48 h at 37°C and in atmosphere of 5% CO2. After 48 h cells were fixed, washed, and stained for 30 min with 0.4% (w/v) SRB dissolved in 1% acetic acid. Unbound dye was removed by four washes with 1% acetic acid, and attached stain was recovered with Tris-EDTA buffer.
(§5) Color intensity was measured in an ELISA reader. […]

A further assay deals with CDK9 (Homo sapiens, UniProt P50750). As to the kind of experiment: CDK9 kinase inhibition (Reaction Biology HotSpot). The conditions noted are these: read-out: % Enzyme Inhibitory Activity CDK9.
CDK9, sequence (P50750 whole entry): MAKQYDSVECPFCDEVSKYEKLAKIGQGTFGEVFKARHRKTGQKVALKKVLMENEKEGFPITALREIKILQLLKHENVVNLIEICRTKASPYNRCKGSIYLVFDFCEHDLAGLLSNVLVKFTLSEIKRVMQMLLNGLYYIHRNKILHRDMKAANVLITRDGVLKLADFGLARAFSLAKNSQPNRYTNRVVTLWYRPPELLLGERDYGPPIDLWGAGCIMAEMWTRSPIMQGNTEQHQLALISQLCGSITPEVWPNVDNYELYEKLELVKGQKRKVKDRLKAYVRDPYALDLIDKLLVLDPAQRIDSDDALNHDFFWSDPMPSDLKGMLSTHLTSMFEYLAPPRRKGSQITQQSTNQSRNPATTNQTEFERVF
CDK9, sequence (O60563 whole entry partner): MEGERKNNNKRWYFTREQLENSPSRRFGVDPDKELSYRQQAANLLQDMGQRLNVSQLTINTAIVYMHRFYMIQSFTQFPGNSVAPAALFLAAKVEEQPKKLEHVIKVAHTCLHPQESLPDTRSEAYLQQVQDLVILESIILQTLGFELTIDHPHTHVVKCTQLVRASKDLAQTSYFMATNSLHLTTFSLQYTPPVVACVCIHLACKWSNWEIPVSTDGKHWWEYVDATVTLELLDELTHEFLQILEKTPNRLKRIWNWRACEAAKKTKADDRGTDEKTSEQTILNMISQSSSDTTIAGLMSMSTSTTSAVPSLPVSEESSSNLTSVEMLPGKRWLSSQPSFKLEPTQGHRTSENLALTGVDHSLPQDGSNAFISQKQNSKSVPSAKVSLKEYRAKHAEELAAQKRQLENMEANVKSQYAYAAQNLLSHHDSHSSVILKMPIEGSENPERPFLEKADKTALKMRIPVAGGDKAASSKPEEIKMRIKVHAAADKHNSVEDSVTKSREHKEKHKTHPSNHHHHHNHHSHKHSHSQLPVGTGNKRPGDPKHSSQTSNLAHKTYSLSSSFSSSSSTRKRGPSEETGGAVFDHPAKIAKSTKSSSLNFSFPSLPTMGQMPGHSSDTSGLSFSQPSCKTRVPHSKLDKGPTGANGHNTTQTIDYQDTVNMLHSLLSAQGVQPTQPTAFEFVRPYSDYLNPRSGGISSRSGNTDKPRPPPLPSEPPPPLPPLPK
For the next assay, the target named is T1, CDK4 (Homo sapiens, UniProt P11802).
T1 construct: purchased Reaction Biology Corp. (Kinase HotSpot service)
T1 sequence (P11802 whole entry): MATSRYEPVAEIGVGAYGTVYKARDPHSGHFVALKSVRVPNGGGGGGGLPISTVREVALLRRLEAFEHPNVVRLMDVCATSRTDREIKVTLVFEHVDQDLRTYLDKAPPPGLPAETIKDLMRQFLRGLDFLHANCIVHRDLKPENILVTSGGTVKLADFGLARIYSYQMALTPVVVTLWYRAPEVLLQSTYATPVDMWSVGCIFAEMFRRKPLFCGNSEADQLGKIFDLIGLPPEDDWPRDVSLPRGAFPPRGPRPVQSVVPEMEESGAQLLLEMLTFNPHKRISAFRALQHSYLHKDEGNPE
T1 sequence (P24385 whole entry partner): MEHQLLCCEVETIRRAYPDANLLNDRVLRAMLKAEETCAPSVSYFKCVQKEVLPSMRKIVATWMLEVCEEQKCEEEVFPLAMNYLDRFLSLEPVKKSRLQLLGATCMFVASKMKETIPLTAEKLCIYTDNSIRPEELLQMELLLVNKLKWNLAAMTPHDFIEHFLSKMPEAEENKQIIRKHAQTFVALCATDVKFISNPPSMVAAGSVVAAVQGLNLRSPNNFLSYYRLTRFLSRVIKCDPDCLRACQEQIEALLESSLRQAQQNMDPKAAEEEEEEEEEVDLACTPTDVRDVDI
As to the kind of experiment: CDK4 kinase inhibition (Reaction Biology HotSpot). It is filed as biochemical. Particulars: for inhibition at 20 µM: single dose of 20 µM. From the text: (§6) 5. CDK Kinase Inhibitory Activity
(§7) along with required cofactors.
(§8) Kinase activity data were
(§9) (dimethyl sulfoxide) reactions.

The subject of assay [2] is MDA-MB-231 breast cancer cell line. Briefly: SRB anti-proliferative assay, MDA-MB-231. It is filed as cell-based, human. Particulars: for IC50 / IC50 MDA-MB-231: mean ± S.D. from 3 separate experiments. How it is done: as §1, §2, §3, §4, §5
A further assay concerns the target T2, CDK2 (Homo sapiens, UniProt P24941).
T2 construct: purchased Reaction Biology Corp. (Kinase HotSpot service)
Briefly: CDK2 kinase inhibition (Reaction Biology HotSpot). It is filed as biochemical. The conditions noted are these: single dose of 20 µM; read-out: % Enzyme Inhibitory Activity CDK2.
Source text: as §6, §7, §8, §9

Setting [3] is: MCF7, SRB assay, 48 h, mean ± S.D. from 3 separate experiments.
[4] abbreviates: Homo sapiens, MDA-MB-231, SRB assay, 48 h, read-out: IC50 MDA-MB-231.
Setting [5] is: Homo sapiens, MDA-MB-231, 48 h, read-out: IC50 MDA-MB-231, SRB assay, 48 h.
The mark [6] stands for this setting: SRB assay, 48 h, mean ± S.D. from 3 separate experiments.

Method for CDK9: The in vitro CDK kinase inhibition assay was performed by Reaction Biology Corp. (PA, USA) (http://www.reactionbiology.com) Kinase HotSpotSM service.
Reaction Biology Corp. Kinase HotSpotSM service (http://www.reactionbiology.com)
was used for screening of tested compounds. CDK Kinase inhibitory activities were
assessed by the HotSpot assay platform, which contained specific kinase/substrate pairs
along with required cofactors. Base reaction buffer: 20 mM Hepes (pH 7.5), 10 mM MgCl2,
Testing compounds were dissolved in 100% DMSO to specific concentration. The serial
dilution was conducted by Integra Viaflo Assist in DMSO. The reaction mixture containing the examined compound and 33P-ATP was incubated at room temperature for
2 h and radioactivity was detected by filter-binding method. Kinase activity data were
expressed as the percent remaining kinase activity in test samples compared to vehicle

With `O=C1Nc2ccccc2/C1=N/NC(=O)c1cc2ccccc2[nH]1` [6a], the IC50 in assay [1] (setting [3]) is 3.12 ± 0.14 µM; at CDK4, 1.82 µM; in assay [2] (setting [4]) it was 15.1 ± 0.73 µM. For the same molecule, the inhibition at 20 µM at CDK9 came out at 20%; at CDK4, 92%; at CDK2, 78%.

Turning to `O=C1Nc2ccc(F)cc2/C1=N/NC(=O)c1cc2ccccc2[nH]1` [6b], the IC50 in assay [1] (setting [3]) worked out at 6 ± 0.32 µM; in assay [2] (setting [4]), 6.36 ± 0.29 µM. The values for the inhibition at 20 µM at CDK9, against CDK4 and at CDK2 were 7%, 33% and 48%, respectively.

For the molecule `O=C1Nc2ccc(Cl)cc2/C1=N/NC(=O)c1cc2ccccc2[nH]1` [6c], the IC50 in assay [1] (setting [3]) turned out to be 2.72 ± 0.17 µM; in assay [2] (setting [4]), 9.48 ± 0.44 µM. Moreover, the inhibition at 20 µM on CDK9 is 11%; against CDK4, 28%; at CDK2 it was ≥ 50%.

As for `O=C1Nc2ccc(Br)cc2/C1=N/NC(=O)c1cc2ccccc2[nH]1` [6d], the IC50 was determined as 3.31 ± 0.11 µM in assay [1] (setting [3]) and 18.3 ± 0.71 µM in assay [2] (setting [4]). Besides, the inhibition at 20 µM at CDK9 turned out to be 32%; against CDK4 it was 43%; at CDK2 it was 85%.

For the molecule `O=C1Nc2ccc(OC(F)(F)F)cc2/C1=N/NC(=O)c1cc2ccccc2[nH]1` [6g], the results for the IC50 in assay [1] (setting [3]) and in assay [2] (setting [4]) were 5.07 ± 0.21 µM and 7.19 ± 0.38 µM, respectively. Moreover, the inhibition at 20 µM on CDK9 amounted to 4%; at CDK4, 19%; at CDK2 it was 14%.

With `O=C1Nc2ccc([N+](=O)[O-])cc2/C1=N/NC(=O)c1cc2ccccc2[nH]1` [6h], the IC50 in assay [1] (setting [3]) came to 21.4 ± 1.58 µM; in assay [2] (setting [4]), 1.85 ± 0.07 µM. The inhibition at 20 µM at CDK9 was 10%; against CDK4 it was 46%; at CDK2, ≥ 50%. The “fold potency compared to staurosporine” value in assay [2] (MDA-MB-231, ratio of IC50 values) turned out to be 5.56 fold.

For the molecule `Cc1cc(C)c2c(c1)/C(=N/NC(=O)c1cc3ccccc3[nH]1)C(=O)N2` [6i], the 50% inhibitory concentration (IC50) in assay [1] (setting [3]) was 47.2 ± 3.02 µM; in assay [2] (setting [4]), > 100 µM. Further, in assay [2] (SRB assay, 48 h), the “IC50 MDA-MB-231” value is “no activity”.

As to `CN1C(=O)/C(=N\NC(=O)c2cc3ccccc3[nH]2)c2ccccc21` [9a], the IC50 amounted to 5.5 ± 0.28 µM in assay [1] (setting [3]) and 8.39 ± 0.27 µM in assay [2] (setting [4]). The inhibition at 20 µM on CDK9 stood at 13%; against CDK4 it was 20%; at CDK2, 41%.

For `CCCN1C(=O)/C(=N\NC(=O)c2cc3ccccc3[nH]2)c2ccccc21` [9b], the IC50 in assay [1] (MCF7, 48 h) is 40.9 ± 3.17 µM; in assay [2] (setting [5]), 18.2 ± 0.85 µM; in assay [2] (read-out: IC50 MDA-MB-231, SRB assay, 48 h), 18.5 ± 0.85 µM.

With `CCOC(=O)CN1C(=O)/C(=N\NC(=O)c2cc3ccccc3[nH]2)c2ccccc21` [9c], the IC50 in assay [1] (setting [3]) was 67.5 ± 3.02 µM; in assay [2] (setting [4]), > 100 µM. The “IC50 MDA-MB-231” value in assay [2] (SRB assay, 48 h) was “no anti-proliferative activity”.

On to `O=C(N/N=C1\C(=O)N(Cc2ccccc2)c2ccccc21)c1cc2ccccc2[nH]1` [9d], for which the IC50 was 9.56 ± 0.61 µM in assay [1] (MCF7, 48 h) and 6.5 ± 0.39 µM in assay [2] (setting [5]).

In the case of `O=C(N/N=C1\C(=O)N(Cc2ccc(F)cc2)c2ccccc21)c1cc2ccccc2[nH]1` [9e], the IC50 in assay [1] (MCF7, 48 h) amounted to 3.7 ± 0.19 µM; in assay [2] (setting [5]), 1.03 ± 0.04 µM. Further, the figures for the inhibition at 20 µM on CDK9, against CDK4 and on CDK2 were 9%, 12% and 5%, respectively.

On to `CCCN1C(=O)/C(=N\NC(=O)c2cc3ccccc3[nH]2)c2cc(Cl)ccc21` [9f], for which the IC50 in assay [1] (MCF7, 48 h) was found to be 19.3 ± 0.65 µM; in assay [2] (setting [5]), 9.44 ± 0.35 µM.

Regarding `O=C(NN=C1Cc2ccccc2C1)c1cc2ccccc2[nH]1` [11a], the IC50 is 84.7 ± 4.02 µM in assay [1] (setting [3]) and > 100 µM in assay [2] (setting [4]). The “IC50 MCF-7” value in assay [1] (setting [6]) is given as “did not exert any significant anti-proliferative action”. In assay [2] (SRB assay, 48 h), the “IC50 MDA-MB-231” value is “no activity; also recorded: did not exert any significant anti-proliferative action”.

Regarding `O=C(N/N=C1\CCCc2ccccc21)c1cc2ccccc2[nH]1` [11b], the IC50 in assay [1] (setting [3]) and in assay [2] (setting [4]) was > 100 µM throughout. For the same molecule, the “IC50 MCF-7” value in assay [1] (setting [6]) is given as “did not exert any significant anti-proliferative action”. In addition, in assay [2] (SRB assay, 48 h), the “IC50 MDA-MB-231” value is given as “no activity; also recorded: did not exert any significant anti-proliferative action”.

With `CN[C@@H]1C[C@H]2O[C@@](C)([C@@H]1OC)n1c3ccccc3c3c4c(c5c6ccccc6n2c5c31)C(=O)NC4` [Staurosporine, reference compound], on CDK9, the inhibition at 20 µM worked out at 98%.
